Assay results reported in ChEMBL document CHEMBL1201862, “PubChem BioAssay data set” (2004).
The source made the active and inactive calls.

How the values were obtained:
[1] = system: A549; test: A549 cell toxicity, dose response, cytotoxicity control, plate reader, cherry-pick samples (AID 687028); type: functional, cell-based; conditions: Homo sapiens
[2] = system: H4; test: Luminescence Cell-Based Dose Response HTS to Identify Activators of 5'UTR Stem-Loop Driven Prion Protein mRNA Translation in H4 Neuroglioblastoma Cells. [Related pubchem assays: 1829 (Project Summary), 1814 (Primary HTS)]; type: functional; conditions: Homo sapiens
[3] = Luminescence Cell-Based Dose Confirmation HTS to Identify Activators of 5'UTR Stem-Loop Driven Alpha-Synuclein mRNA Translation in H4 Neuroglioblastoma Cells. [Related pubchem assays: 1829 (Project Summary), 1814 (Primary HTS)]; type: functional
[4] = Luminescence Cell-Based Dose Response HTS to Identify Activators of Luciferase Translation or Activity in H4 […] Cells. [Related pubchem assays: 1829 (Project Summary), 1814 (Primary HTS)]; type: functional
[5] = HEK293 cell cytotoxicity, dose response, cytotoxicity control, dry powder samples (AID 720567); type: functional, cell-based
[6] = IGROV1 ovarian cancer cell cytotoxicity, dose response, PAX8 inhibitor project, plate reader, dry powder samples (AID 743043); type: functional, cell-based; conditions: IGROV-1
[7] = NIH:OVCAR-3 ovarian cancer cell cytotoxicity, dose response, PAX8 inhibitor project, plate reader, dry powder samples (AID 743044); type: functional, cell-based
[8] = cytotoxicity in OVCAR8 ovarian cancer cells, dose response, PAX8 project, cell-based, plate reader, dry powder samples (AID 743197); type: functional; conditions: OVCAR-8
[9] = target: Paired box protein Pax-8 (Homo sapiens, UniProt Q06710); test: inhibitors of PAX8-driven TPO luciferase reporter, dose response, RMG-I cells, cherry-pick (AID 687027); type: functional, cell-based;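 note: luciferase reporter driven by Pax8 target thyroperoxidase promoter measured by SteadyGlo luminescence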
Paired box protein Pax-8, sequence (Q06710 whole entry): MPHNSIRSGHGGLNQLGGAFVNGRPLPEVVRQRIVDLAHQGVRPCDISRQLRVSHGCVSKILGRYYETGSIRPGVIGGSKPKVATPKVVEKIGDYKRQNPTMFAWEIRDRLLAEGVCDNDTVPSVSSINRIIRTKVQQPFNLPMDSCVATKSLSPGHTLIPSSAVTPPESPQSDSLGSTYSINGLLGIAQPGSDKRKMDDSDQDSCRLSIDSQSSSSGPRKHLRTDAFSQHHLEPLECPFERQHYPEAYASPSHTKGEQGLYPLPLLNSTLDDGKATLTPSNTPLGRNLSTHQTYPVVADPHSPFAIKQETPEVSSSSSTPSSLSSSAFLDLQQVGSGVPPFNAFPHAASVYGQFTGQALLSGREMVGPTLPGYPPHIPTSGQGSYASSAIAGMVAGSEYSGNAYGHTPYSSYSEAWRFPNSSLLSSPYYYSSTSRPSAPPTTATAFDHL

[10] = HEK293T cell cytotoxicity, dose response, cytotoxicity control, CellTiter-Glo luminescence, dry powder, set 2 (AID 720595); type: functional, cell-based; conditions: HEK293
[11] = HeLa cell cytotoxicity, dose response, cytotoxicity control, CellTiter-Glo luminescence, dry powder, set 2 (AID 720593); type: functional, cell-based
[12] = target: Heat shock protein HSP 90-alpha (Homo sapiens, UniProt P07900); type: functional, organism-based
[13] = C. albicans growth with fluconazole, confirmation, fluorescence, retest (AID 2467); type: functional, cell-based
[14] = NIH-3T3 fibroblast cytotoxicity, dose response, cytotoxicity control, cell-based, fluorescence, Alamar Blue, secondary assay (AID 2327); type: functional;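 note: NIH-3T3 mouse fibroblasts cultured with fluconazole at 8 µg/mL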
[15] = target: Albumin (Bos taurus, UniProt P02769); test: Counterscreen for inhibitors of T-cell receptor (TCR)-CD3 interaction: Fluorescence-based biochemical high throughput dose response assay to identify inhibitors of T-cell receptor (TCR)-CD3 interaction using a TAMRA-labeled BSA probe.; type: functional
Albumin, sequence (P02769 whole entry): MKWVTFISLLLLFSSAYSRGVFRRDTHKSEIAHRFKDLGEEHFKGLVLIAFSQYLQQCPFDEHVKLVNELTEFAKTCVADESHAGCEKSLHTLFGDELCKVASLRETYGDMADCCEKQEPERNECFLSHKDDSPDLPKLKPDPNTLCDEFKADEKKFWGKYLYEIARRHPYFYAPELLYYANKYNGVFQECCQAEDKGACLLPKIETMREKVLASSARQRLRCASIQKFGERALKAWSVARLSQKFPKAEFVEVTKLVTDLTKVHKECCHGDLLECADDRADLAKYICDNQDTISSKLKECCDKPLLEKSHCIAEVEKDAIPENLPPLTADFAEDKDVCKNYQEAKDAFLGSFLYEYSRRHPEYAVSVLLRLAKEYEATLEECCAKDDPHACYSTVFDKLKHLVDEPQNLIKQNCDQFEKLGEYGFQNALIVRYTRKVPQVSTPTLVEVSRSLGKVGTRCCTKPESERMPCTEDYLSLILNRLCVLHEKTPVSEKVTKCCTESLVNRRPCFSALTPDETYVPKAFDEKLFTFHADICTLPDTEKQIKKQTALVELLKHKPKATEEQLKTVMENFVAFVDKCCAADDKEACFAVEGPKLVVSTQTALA

[16] = target: Botulinum neurotoxin type F (Clostridium botulinum, UniProt P30996); test: High-throughput multiplex microsphere dose response for inhibitors of toxin protease, specifically Botulinum neurotoxin light chain F protease, compounds from Cherry Pick 02.; type: functional; conditions: read-out: EC50_MICROM
Botulinum neurotoxin type F, sequence (P30996 1-436 limits assumed): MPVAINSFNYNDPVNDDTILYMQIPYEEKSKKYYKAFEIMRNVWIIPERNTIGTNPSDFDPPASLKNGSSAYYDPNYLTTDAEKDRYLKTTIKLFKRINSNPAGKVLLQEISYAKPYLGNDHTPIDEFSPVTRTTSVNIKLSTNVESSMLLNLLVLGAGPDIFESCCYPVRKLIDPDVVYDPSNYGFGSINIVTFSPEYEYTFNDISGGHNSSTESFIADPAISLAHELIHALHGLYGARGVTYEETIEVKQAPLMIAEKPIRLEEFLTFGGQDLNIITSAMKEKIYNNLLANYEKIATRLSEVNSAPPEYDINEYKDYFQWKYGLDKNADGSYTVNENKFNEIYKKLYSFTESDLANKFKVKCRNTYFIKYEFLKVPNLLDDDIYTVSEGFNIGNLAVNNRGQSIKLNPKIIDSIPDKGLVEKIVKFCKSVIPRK

[17] = Luminescence Cell-Based Dose Confirmation to Identify Activators of 5'UTR Stem-Loop Driven Alpha-Synuclein mRNA Translation in H4 Neuroglioblastoma Cells. [Related pubchem assays: 1829 (Project Summary), 1814 (Primary HTS)]; type: functional
[18] = target: Fructose-bisphosphate aldolase (Mycobacterium tuberculosis, UniProt P9WQA3); test: Fluorescence-based biochemical high throughput dose response assay for inhibitors of the fructose-bisphosphate aldolase (FBA) of M. tuberculosis.; type: functional
Fructose-bisphosphate aldolase, sequence (P9WQA3 whole entry): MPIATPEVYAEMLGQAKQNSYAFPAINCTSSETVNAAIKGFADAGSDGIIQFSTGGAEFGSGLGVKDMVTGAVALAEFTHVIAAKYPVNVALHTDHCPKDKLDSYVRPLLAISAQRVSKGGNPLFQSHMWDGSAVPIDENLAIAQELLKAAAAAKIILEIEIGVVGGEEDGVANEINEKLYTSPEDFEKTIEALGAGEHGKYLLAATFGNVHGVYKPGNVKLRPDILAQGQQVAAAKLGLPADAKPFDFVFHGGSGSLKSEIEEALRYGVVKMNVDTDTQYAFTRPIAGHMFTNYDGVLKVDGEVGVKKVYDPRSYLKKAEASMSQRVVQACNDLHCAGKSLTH

[19] = Luminescence Cell-Based Dose Response to Identify Activators of 5'UTR Stem-Loop Driven Prion Protein mRNA Translation in H4-C Neuroglioblastoma Cells. [Related pubchem assays: 1829 (Project Summary), 1814 (Primary HTS)]; type: functional
[20] = target: T1, Cysteine protease ATG4B (Homo sapiens, UniProt Q9Y4P1); type: functional;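 note: Fluorescence-based dose-response confirmation assay measuring inhibition of ATG4B activity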
T1 sequence (Q9Y4P1 whole entry): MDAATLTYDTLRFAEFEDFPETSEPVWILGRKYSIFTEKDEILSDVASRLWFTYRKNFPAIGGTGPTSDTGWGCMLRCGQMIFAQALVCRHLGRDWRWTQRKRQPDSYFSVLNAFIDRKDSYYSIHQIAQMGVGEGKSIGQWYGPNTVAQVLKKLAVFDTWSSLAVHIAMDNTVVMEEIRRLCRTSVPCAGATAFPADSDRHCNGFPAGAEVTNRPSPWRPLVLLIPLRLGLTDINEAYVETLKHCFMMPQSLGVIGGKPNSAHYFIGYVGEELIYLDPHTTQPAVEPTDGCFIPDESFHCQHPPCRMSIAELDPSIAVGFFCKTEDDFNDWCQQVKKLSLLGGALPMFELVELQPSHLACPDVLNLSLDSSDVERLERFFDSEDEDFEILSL

[21] = Luminescence Cell-Based Dose Response to Identify Activators of Luciferase Translation or Activity in H4-C Neuroglioblastoma Cells. [Related pubchem assays: 1829 (Project Summary), 1814 (Primary HTS)]; type: functional
[22] = target: Phospholipase A2 (Homo sapiens, UniProt P04054); type: functional;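 note: confirmatory dose-response counterscreen on phospholipase A2, testing hits that came from an ultra-high-throughput screen for ATG4B inhibitors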
Phospholipase A2, sequence (P04054 whole entry): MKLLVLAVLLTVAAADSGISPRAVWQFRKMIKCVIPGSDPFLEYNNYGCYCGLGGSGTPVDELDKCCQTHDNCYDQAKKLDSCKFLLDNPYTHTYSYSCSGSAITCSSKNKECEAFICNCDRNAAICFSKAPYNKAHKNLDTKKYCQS

[23] = target: T2, Protein skinhead-1 (Caenorhabditis elegans, UniProt P34707); type: functional
T2 sequence (P34707 whole entry): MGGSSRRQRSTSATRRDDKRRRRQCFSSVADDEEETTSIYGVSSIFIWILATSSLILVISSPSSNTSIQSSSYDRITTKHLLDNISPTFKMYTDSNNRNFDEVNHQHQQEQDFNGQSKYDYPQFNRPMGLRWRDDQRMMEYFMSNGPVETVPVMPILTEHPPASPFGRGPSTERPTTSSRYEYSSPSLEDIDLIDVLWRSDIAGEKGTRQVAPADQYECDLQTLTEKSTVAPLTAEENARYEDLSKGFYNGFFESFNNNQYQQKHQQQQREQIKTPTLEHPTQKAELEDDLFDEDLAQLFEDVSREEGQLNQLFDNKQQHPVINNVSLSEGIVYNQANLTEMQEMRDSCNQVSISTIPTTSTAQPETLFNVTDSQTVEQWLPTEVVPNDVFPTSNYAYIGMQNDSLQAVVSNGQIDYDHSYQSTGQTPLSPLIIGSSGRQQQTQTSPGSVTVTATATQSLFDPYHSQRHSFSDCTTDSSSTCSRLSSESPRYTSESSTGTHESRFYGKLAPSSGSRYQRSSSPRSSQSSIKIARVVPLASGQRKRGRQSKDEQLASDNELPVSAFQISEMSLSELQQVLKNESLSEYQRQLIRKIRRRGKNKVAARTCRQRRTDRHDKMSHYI

In the case of C[C@]1(C(=O)NCCc2c[nH]c3ccccc23)C=C[C@@H](Cc2ccccc2)N1C(=O)c1ccccc1, the AC50 [1] is reported as 20.6 µM (active).
For COC(=O)c1cn(C(=O)c2ccc(OC)cc2)c2ccccc12, the EC50 [2] was > 120 µM (not active), the EC50 [3] was > 120 µM (not active) and the EC50 [4] was 9.72 µM (active). For the same molecule, the AC50 [5] was > 30 µM (inactive).
With C[C@H]1CCCCO[C@H](CN(C)Cc2ccc(C(F)(F)F)cc2)[C@@H](C)CN([C@@H](C)CO)C(=O)c2cc(NC(=O)Cc3ccccc3)ccc2O1 the AC50 [6] was 31.9 µM (active), the AC50 [7] was 29.7 µM (active) and the AC50 [8] was 53 µM (active). For the same molecule, the AC50 [9] was 7.6 µM (active).
In the case of O=C(CSc1ccc(-c2ccccn2)nn1)Nc1ccccc1, the AC50 [10] is reported as 25.8 µM (active), the AC50 [11] is reported as > 52 µM (inactive) and the AC50 [12] is reported as 35.3 µM (active).
In the case of COc1ccc(NC(=O)NNC(=O)c2cc3ccccc3cc2O)cc1, the EC50 [13] is reported as > 38 µM (not active), the EC50 [14] is reported as > 160 µM (inactive) and the IC50 [15] is reported as > 94.1 µM (inactive).
For COc1ccc(C(CNC(=O)c2cc(S(=O)(=O)N3CCCCC3)ccc2C)N2CCCC2)cc1 (centres undefined), the EC50 [16] was > 20 µM (inactive).
In the case of COc1ccc2c(c1OC)C(=O)OC2Nc1nc(-c2ccc(-c3ccccc3)cc2)cs1 (centres undefined), the EC50 [17] is reported as 0.396 µM (active), the IC50 [18] is reported as 6.08 µM (active) and the EC50 [19] is reported as 0.254 µM (active). For the same molecule, the IC50 [20] was 8.28 µM (active), the EC50 [21] was 0.284 µM (active) and the IC50 [22] was 17.1 µM (active). The EC50 [4] was < 0.1 µM (active) and the IC50 [23] was 18.7 µM (active).
